“And” between values parts separate entries of the source, which are not always exact repeats. Equal entries are not always repeated. Where two headings read alike, the source gives them in different places.
Assays:
human PR [1] = target: T1, human PR (Homo sapiens, UniProt P06401); assay: PR agonist yeast lacZ reporter gene assay; conditions: for EC50: EC50, agonist assay
T1 sequence (P06401 1-933): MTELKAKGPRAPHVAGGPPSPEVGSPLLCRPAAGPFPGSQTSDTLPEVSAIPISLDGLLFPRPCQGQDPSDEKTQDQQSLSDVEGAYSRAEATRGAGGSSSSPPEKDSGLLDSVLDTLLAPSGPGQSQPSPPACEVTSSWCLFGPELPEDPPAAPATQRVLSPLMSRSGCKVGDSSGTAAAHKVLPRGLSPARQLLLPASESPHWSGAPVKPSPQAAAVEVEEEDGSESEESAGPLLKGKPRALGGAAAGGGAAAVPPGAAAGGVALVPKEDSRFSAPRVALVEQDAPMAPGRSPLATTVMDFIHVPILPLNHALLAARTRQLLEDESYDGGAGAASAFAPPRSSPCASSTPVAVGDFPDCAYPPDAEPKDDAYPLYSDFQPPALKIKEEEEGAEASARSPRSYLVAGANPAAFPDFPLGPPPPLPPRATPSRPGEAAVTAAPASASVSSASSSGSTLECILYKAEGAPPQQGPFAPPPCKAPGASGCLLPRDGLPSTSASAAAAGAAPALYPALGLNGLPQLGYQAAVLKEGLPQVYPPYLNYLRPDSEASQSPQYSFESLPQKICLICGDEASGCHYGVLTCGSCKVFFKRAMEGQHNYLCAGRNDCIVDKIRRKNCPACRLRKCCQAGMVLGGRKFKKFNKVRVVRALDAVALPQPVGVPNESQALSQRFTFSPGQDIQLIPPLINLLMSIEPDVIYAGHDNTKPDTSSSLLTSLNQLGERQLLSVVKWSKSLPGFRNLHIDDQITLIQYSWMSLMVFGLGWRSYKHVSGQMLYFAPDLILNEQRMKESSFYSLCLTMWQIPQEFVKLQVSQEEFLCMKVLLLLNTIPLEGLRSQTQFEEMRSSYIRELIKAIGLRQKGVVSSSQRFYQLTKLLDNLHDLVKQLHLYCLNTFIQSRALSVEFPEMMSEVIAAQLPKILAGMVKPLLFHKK

human AR [2] = target: T2, human AR (Homo sapiens, UniProt P10275); assay: AR agonist yeast lacZ reporter gene assay; assay type: cell-based
T2 sequence (P10275 1-920): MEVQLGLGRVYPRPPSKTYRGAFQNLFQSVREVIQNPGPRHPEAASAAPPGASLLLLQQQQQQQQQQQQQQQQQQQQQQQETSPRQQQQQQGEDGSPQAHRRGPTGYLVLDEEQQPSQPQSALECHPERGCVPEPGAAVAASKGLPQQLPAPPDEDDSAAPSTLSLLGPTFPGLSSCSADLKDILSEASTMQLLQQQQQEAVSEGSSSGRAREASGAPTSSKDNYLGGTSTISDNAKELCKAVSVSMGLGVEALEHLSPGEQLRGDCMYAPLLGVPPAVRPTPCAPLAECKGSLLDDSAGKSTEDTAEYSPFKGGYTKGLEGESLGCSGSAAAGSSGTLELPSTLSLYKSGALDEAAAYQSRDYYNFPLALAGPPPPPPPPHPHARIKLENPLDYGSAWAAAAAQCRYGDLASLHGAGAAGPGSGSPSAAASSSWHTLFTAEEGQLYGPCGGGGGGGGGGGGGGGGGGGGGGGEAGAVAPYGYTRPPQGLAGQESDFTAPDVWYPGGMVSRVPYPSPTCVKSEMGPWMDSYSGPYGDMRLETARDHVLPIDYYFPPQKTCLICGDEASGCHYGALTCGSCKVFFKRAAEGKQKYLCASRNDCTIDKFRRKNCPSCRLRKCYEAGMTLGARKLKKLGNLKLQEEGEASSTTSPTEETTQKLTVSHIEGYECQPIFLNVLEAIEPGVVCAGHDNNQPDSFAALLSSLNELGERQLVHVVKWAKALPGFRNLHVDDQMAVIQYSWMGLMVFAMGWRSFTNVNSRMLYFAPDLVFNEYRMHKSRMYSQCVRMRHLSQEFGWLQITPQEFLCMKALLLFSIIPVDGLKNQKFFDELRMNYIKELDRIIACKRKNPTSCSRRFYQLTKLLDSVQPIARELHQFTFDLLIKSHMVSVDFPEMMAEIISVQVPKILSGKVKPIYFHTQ

human AR [3] = target: T2, human AR; assay: AR antagonist yeast reporter gene assay (competition with testosterone at EC50); assay type: cell-based; conditions: with testosterone […] nM
human ERβ [4] = target: T3, human ERβ (Homo sapiens, UniProt Q92731); assay: ERβ agonist yeast lacZ reporter gene assay; assay type: cell-based
T3 sequence (Q92731 whole entry): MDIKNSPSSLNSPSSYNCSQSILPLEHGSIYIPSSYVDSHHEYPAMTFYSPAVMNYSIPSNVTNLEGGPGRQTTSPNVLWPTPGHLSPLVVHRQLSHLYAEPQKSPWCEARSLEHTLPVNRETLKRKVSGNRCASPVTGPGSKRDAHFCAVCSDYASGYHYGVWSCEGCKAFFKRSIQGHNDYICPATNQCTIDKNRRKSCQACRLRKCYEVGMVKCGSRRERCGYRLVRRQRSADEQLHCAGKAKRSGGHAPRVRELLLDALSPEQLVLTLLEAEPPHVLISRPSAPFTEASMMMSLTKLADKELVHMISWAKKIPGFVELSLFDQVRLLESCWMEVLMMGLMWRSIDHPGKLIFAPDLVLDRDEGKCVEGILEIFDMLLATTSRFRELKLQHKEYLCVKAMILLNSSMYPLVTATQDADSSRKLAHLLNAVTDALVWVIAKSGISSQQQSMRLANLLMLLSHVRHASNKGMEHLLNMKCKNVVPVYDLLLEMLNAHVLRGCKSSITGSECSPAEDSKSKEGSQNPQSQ

human ERβ [5] = target: T3, human ERβ; assay: ERβ antagonist yeast reporter gene assay (competition with E2 at EC50); conditions: co-exposure with E2; data not shown
human ERα = target: T4, human ERα (Homo sapiens, UniProt P03372); assay: ERα agonist yeast lacZ reporter gene assay; assay type: cell-based; conditions: strain cwp1Δcwp2Δ
T4 sequence (P03372 1-595): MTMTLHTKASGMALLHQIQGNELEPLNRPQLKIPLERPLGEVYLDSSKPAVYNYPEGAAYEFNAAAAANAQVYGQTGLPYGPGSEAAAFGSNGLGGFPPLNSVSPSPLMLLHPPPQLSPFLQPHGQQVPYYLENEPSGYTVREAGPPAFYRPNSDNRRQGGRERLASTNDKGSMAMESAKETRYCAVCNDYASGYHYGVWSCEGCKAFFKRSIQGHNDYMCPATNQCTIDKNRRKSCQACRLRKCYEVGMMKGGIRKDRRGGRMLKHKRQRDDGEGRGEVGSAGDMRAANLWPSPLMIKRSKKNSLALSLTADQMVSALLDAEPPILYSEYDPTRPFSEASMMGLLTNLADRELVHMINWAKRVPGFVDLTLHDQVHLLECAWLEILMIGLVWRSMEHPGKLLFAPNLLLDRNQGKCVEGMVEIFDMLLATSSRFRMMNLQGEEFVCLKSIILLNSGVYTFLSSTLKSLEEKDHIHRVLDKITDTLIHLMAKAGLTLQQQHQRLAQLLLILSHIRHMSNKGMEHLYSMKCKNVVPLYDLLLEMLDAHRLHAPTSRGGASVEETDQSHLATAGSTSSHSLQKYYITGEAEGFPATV

human PR [6] = target: T1, human PR; assay: PR antagonist yeast reporter gene assay (competition with PS at EC50); assay type: cell-based; conditions: strain cwp1Δpdr5Δ
[7] = agonist assay, strain W303a, read-out: EC50
[8] = agonist assay, strain cwp1Δcwp2Δ, read-out: EC50

C[C@]12CCC(=O)C=C1CC[C@@H]1[C@@H]2[C@@H](O)C[C@]2(C=O)[C@@H](C(=O)CO)CC[C@@H]12 [AS, aldosterone]
EC50 (human PR [1]; strain cwp1Δpdr5Δ): 9700 nM

C[C@]12C[C@H](O)[C@H]3[C@@H](CCC4=CC(=O)CC[C@@]43C)[C@@H]1CC[C@@H]2C(=O)CO [CS, corticosterone]
EC50 (human PR [1]; strain cwp1Δcwp2Δ): 20100 nM | EC50 (human PR [1]; strain cwp1Δpdr5Δ): 18300 nM

C[C@]12CCC3=C4CCC(=O)C=C4CC[C@H]3[C@@H]1CC[C@@]2(O)CC#N [DNG, Dienogest]
EC50 (human PR [1]; strain cwp1Δcwp2Δ): 6100 nM | EC50 (human PR [1]; strain cwp1Δpdr5Δ): 860 nM | androgenic activity, fold weaker than earlier generation progestins with respect to minimal detection limit concentration (human AR [2]; AR-expressing mutant yeast strains): 100 fold | EC50 (human AR [2]; [7]): 9780 nM | EC50 (human AR [2]; agonist assay, strain cwp1Δpdr5Δ, read-out: EC50): 8100 nM | EC50 (human AR [2]; agonist assay, strain pdr5Δpdr10Δ, read-out: EC50): 2430 nM | constitutive expression of β-gal in reference CYC strains (CYC yeast strains): Neither DNG nor DRSP inhibited | IC50 (human AR [3]; strain cwp1Δpdr5Δ): 38100 nM | IC50 (human AR [3]; strain pdr5Δpdr10Δ): 30200 nM

C[C@]12CCC(=O)C=C1[C@@H]1C[C@@H]1[C@H]1[C@@H]3[C@@H]4C[C@@H]4[C@@]4(CCC(=O)O4)[C@@]3(C)CC[C@@H]12 [DRSP, drospirenone]
constitutive expression of β-gal in reference CYC strains (CYC yeast strains): Neither DNG nor DRSP inhibited

C[C@]12CC[C@@H]3c4ccc(O)cc4CC[C@H]3[C@@H]1CCC2=O [E1, estrone]
EC50 (human AR [2]; EC50): 900 nM and 860 nM and 96 nM

C[C@]12CC[C@@H]3c4ccc(O)cc4CC[C@H]3[C@@H]1C[C@@H](O)[C@@H]2O [E3, estriol]
EC50 (human ERβ [4]; [7]): 34 nM | EC50 (human ERβ [4]; [8]): 1.22 nM | Detection limit (human ERβ [4]; strain W303a): 0.1 µM | Detection limit (human ERβ [4]; strain cwp1Δcwp2Δ): 10^−4 μM

CC(C)C(=O)Nc1ccc([N+](=O)[O-])c(C(F)(F)F)c1 [Flu, flutamide]
constitutive expression of β-gal in reference CYC strains (CYC yeast strains): not affected

C#C[C@]1(O)C=C[C@H]2[C@@H]3CCC4=CC(=O)CC[C@@H]4[C@H]3CC[C@@]21CC [GTD, gestodene]
EC50 (human PR [1]; strain W303a): 220 nM | EC50 (human PR [1]; strain cwp1Δpdr5Δ): 0.996 nM | androgenic activity, fold weaker than earlier generation progestins with respect to minimal detection limit concentration (human AR [2]): 10 fold | EC50 (human AR [2]; EC50): 1060 nM and 400 nM

C[C@]12CC[C@@H]3c4ccc(O)cc4C[C@@H](CCCCCCCCC[S+]([O-])CCCC(F)(F)C(F)(F)F)[C@H]3[C@@H]1CC[C@@H]2O (some centres unmarked) [ICI, ICI 182, 780]
constitutive β-gal expression in control CYC strains (CYC yeast strains): not repressed

Cc1c(-c2ccc(O)cc2)nn(-c2ccc(O)cc2)c1-c1ccc(OCCN2CCCCC2)cc1.Cl.Cl [MPP, methyl-piperidino-pyrazoledihydrochloride hydrate]
antagonistic activity (human ERβ [5]): undetectable | EC50 (human ERβ [4]; [7]): 19200 nM | EC50 (human ERβ [4]; [8]): 2730 nM

CC#C[C@]1(O)CC[C@H]2[C@@H]3CCC4=CC(=O)CCC4=C3[C@@H](c3ccc(N(C)C)cc3)C[C@@]21C [Mif, mifepristone]
constitutive expression of β-gal in reference CYC strains (CYC yeast strains): not affected

CCCc1c(-c2ccc(O)cc2)nn(-c2ccc(O)cc2)c1-c1ccc(O)cc1 [PPT, propyl pyrazole triol]
EC50 (human ERβ [4]; read-out: EC50): 13700 nM and 2340 nM | fold lower EC50 value for ERα than ERβ (human ERα): 2.5 fold | fold lower minimum detection limit for ERα than ERβ (human ERα): 10 fold

CC(=O)[C@H]1CC[C@H]2[C@@H]3CCC4=CC(=O)CC[C@]4(C)[C@H]3CC[C@]12C [PS, progesterone]
Detection limit (human PR [1]; strain W303a): 10 µM | Detection limit (human PR [1]; strain cwp1Δcwp2Δ): 0.01 µM | Detection limit (human PR [1]; strain cwp1Δpdr5Δ): 0.01 µM

CC(=O)S[C@@H]1CC2=CC(=O)CC[C@]2(C)[C@H]2CC[C@@]3(C)[C@@H](CC[C@@]34CCC(=O)O4)[C@H]12 [Spi, spironolactone]
Maximum inhibition (human PR [6]): 34.0% | constitutive expression of β-gal in reference CYC strains (CYC yeast strains): not affected

C[C@]12CC[C@H]3[C@@H](CCC4=CC(=O)CC[C@@]43C)[C@@H]1CC[C@@H]2O [TS, Testosterone]
EC50 (human PR [1]; strain cwp1Δcwp2Δ): 29000 nM | EC50 (human PR [1]; strain cwp1Δpdr5Δ): 31000 nM | EC50 (human ERβ [4]; EC50, agonist assay, strain cwp1Δcwp2Δ): 870 nM

CC/C(=C(\c1ccccc1)c1ccc(OCCN(C)C)cc1)c1ccccc1 [Tam, tamoxifen]
constitutive β-gal expression in control CYC yeasts (CYC yeast strains; 100 μM): less than 60%

C[C@H]1CCC[C@H](O)CCCCCc2cc(O)cc(O)c2C(=O)O1 [Zer, zeranol]
constitutive expression of β-gal in reference CYC strains (CYC yeast strains; CYC W303a and corresponding CYC mutant strains): not affected
